Results reported in US10280158B2, “Immune adjustment compound, use thereof and pharmaceutical composition comprising same” (SUZHOU CONNECT BIOPHARMACEUTICALS, LTD., priority 2013, dated 2019).

Assays:
human S1P1 = target: T1, human S1P1 (Homo sapiens, UniProt P21453); experiment: Internalization effect experiment on S1P1 (CHO-S cells, Myc tag, flow cytometry); type: cell-based; details: for EC50: CHO-S cells expressing human S1P1, 1 hour at 37° C., read-out: Receptor Internalization (EC50) S1P1; for activity of inducing S1P1 internalization: CHO-S cells expressing human S1P1, in words
T1 construct: expressed in transfected cells; host or cells: CHO-S cells
T1 sequence (P21453 whole entry): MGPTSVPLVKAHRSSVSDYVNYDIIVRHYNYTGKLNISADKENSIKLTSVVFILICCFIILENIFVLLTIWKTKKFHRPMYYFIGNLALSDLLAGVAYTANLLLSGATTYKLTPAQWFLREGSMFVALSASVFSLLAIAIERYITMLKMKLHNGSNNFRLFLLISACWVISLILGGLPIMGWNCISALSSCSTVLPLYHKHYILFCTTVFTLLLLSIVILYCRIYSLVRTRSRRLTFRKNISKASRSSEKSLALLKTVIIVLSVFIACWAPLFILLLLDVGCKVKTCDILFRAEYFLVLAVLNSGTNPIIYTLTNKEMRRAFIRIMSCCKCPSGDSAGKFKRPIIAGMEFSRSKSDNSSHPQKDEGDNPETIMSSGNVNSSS
Source text: It is well known that S1P1 small molecule agonists can prevent lymphocytes from entering the peripheral circulation by inducing internalization of S1P1 on cell surface. In order to determine whether the compounds provided by present invention have an activity of inducing S1P1 internalization, CHO—S cells expressing human S1P1, to replace the lymphocytes, are used as detection system of S1P1 internalization. For ease of monitoring the S1P1 on cell surface, a Myc tag is fused to N-terminal of S1P1, thus the expression of S1P1 is analyzed by flow cytometry after incubating the cells with fluorescent-labeled antibody against the Myc tag.
A 10 mM stock solution was prepared by dissolving compound 2 provided by the present invention in dimethyl sulfoxide (DMSO), and then the stock solution was diluted to different concentrations as desired with DMEM. CHO—S cells bearing human S1P1 with Myc tag were harvested and then adjusted to a density of one million cells per mL by Dulbecco's modified Eagle's medium (DMEM). Different concentrations of Compound 2 diluted in an equal volume were mixed and the cell suspension and then incubated at 37° C. for 1 hour. After incubation, the mixture was centrifuged at 800 RPM for 5 minutes to obtain the cells. The cells were resuspended in FACS buffer (PBS containing 1% BSA), and Myc antibody labelled with fluorescein isothiocyanate (FITC) (from Californian Miltenyi Biotec GmbH, USA) was added in and incubated for 1 hour on ice. The cells were washed, resuspended in pre-cooled FACS buffer and analysed by FACS Calibur flow cytometry.

[1] = In vivo pharmacokinetic experiment, oral administration; parameters: species or system Sprague Dawley rats; details: for half-life / AUC(0-inf) / Cmax / Tmax: male, Sprague-Dawley, rat, plasma; for half-life: po, 3 mg/kg; for elimination speed after the highest concentration, compared with compounds 1 and 5: oral administration, FIGS. 1A and 1B
Experimental: (§1) In this Example, the pharmacokinetic properties of compounds 1, 2, 3, 4 and 5 were evaluated via. i.v. and p.o. dosing to Sprague Dawley rats.
(§2) Experimental animals used in this Example and hereinafter were male SD rats of 7-9 weeks old, with body weight ranging from 186 to 231 g, which were purchased from Beijing Vital River Laboratory Animal Technology Co., Ltd. The animals were quarantined by veterinarian for 5 days after purchase, then animals had passed quarantine inspection were selected to be tested under SPE conditions, wherein the tested animals are assigned into 3 rats per group as follows.
Oral administration group: 2.74 mg of each of compounds 1-5 was respectively prepared into a solution of 0.3 mg/mL by using 9.113 mL 0.5% CMC-Na as a diluent. Each solution was vortexed 1-2 mins after mixed fully, and then was ultrasonically treated for 20-30 mins until a uniform suspension was obtained. The uniform suspension was used as medicine administrated to oral administration group, and the administration was conducted with a dose of 10 mL/kg body weight of each rat.
(§3) For both oral administration group and intravenous administration group, blood samples were collected at 0.0833 h (5 min), 0.25 h (15 min), 0.5 h, 1 h, 2 h, 4 h, 8 h, and 24 h after administration. After isoflurane anesthesia 0.3 mL whole blood was collected from orbital venous plexus of the animals at each time point. The animals would be euthanized after all samples were collected.
(§4) The collected blood samples were placed in EP tubes containing heparin sodium (about 10 μl, 1000 IU/mL), which were then placed in trash ice immediately, and centrifuged at 4,000 rpm and a low temperature (4° C.) for 5 minutes. The plasma was isolated rapidly and then stored at −20° C. until analysis.
(§5) The concentration of each compound in blood was measured by LC-MS/MS-001 (Q-trap-3200) with osalmide as internal standard material, as follows. 24 μL blank plasma was added into 6 μL plasma sample (5 times of dilution), and then a solution of acetonitrile containing 150 μL internal standard material (osalmide in 100 μg/mL) was added in. The mixture was shaken for 5 minutes, and then centrifuged at 4,000 rpm for 5 minutes. 2 μL of the obtained sample was implanted into LC-MS/MS for analysis. As for undiluted plasma sample, 30 μL of it was added into a solution of acetonitrile containing 150 μL internal standard material (osalmide in 100 μg/mL). The mixture was shaken for 5 minutes, and then centrifuged at 4,000 rpm for 5 minutes. 2 μL of the obtained sample was implanted into LC-MS/MS for analysis.
(§6) As for data analysis, WinNolin (V6.2) non-compartment model (NCA) was used for calculating main metabolic pharmacokinetic parameters including t1/2, AUC(0−t), AUCinf, V, Cl, MRT, etc., and Microsoft Office EXCEL was used for calculating mean values, standard deviations and coefficients of variation.

[2] = In vivo pharmacokinetic experiment, intravenous administration; parameters: species or system Sprague Dawley rats; details: for AUC(0-inf) / MRT inf / clearance / half-life / Vd: male, Sprague-Dawley, rat, plasma, intravenous administration (1 mg/kg), SD rats; for half-life: read-out: T½ (converted); for Vd: read-out: Vss; for mean residence time (MRT) compared with compound 1 / terminal half-life compared with compound 1: intravenous administration, rats, in words
Experimental: as §1, §2
Intravenous administration group: 1.61 mg of each of compounds 1-5 was respectively prepared into a solution of 1 mg/mL by using 1.610 mL 10% HP-β-CD as a diluent. Each solution was vortexed 1-2 mins after mixed fully, and then was ultrasonically treated for 28-30 mins. The obtained solution was used as medicine administrated to intravenous administration group, and the administration was conducted with a dose of 1 mL/kg body weight of each rat.
as §3, §4, §5, §6

human S1P3 = human S1P3 (Homo sapiens, UniProt Q99500); experiment: Internalization effect experiment of S1P3 (CHO-S cells); type: cell-based; details: for EC50: CHO-S cells expressing human S1P3, read-out: Receptor Internalization (EC50) S1P3; for internalization activation effect on S1P3 subtype: CHO-S cells expressing human S1P3, in words
Sequence of human S1P3 (Q99500 whole entry): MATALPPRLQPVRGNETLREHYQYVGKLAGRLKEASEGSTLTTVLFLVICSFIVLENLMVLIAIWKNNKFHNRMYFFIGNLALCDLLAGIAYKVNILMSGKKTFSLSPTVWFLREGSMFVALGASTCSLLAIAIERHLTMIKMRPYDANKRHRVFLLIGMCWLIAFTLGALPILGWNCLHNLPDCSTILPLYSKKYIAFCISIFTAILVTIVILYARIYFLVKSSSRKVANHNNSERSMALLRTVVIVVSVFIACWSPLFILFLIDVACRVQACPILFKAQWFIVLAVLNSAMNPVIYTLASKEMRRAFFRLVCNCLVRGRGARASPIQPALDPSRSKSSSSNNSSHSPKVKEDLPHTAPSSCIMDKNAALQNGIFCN
Experimental: CHO—S cells bearing human S1P1 with Myc tag were harvested and then adjusted to a density of one million cells per mL by Dulbecco's modified Eagle's medium (DMEM). […] After incubation, the mixture was centrifuged at 800 RPM for 5 minutes to obtain the cells. The cells were resuspended in FACS buffer (PBS containing 1% BSA), and Myc antibody labelled with fluorescein isothiocyanate (FITC) (from Californian Miltenyi Biotec GmbH, USA) was added in and incubated for 1 hour on ice. The cells were washed, resuspended in pre-cooled FACS buffer and analysed by FACS Calibur flow cytometry.
CHO—S cells expressing human S1P3 were used to perform internalization detection test. Besides cells, experimental method was the same with the method of the internalized detection experiment of S1P1.

[3] = after oral administration, rats, read-out: terminal half-life (converted)
[4] = oral administration (3 mg/kg), SD rats, read-out: T½ (converted)
[5] = oral administration (3 mg/kg), SD rats
[6] = after oral administration, rats

Row | EC50 (human S1P1) [nM] | half-life [1, 3] [h] | half-life [1, 4] [h] | AUC(0-inf) [1, 5] [ng·h/mL] | Cmax [1, 5] [ng/mL] | Tmax [1, 5] [h] | F [1, 5] [%] | AUC(0-inf) [2] [ng·h/mL] | MRT inf [2] [h] | clearance [2] [mL/min/kg] | half-life [2] [h] | Vd [2] [L/kg] | EC50 (human S1P3) [nM] | half-life compared with compound 1 ([1]; oral and intravenous (Tables 1 and 2), rats, in words) | half-life shortening relative to compound 1 [1, 6] [%] | elimination speed after the highest concentration, compared with compounds 1 and 5 ([1]; rats, in words) | mean residence time (MRT) compared with compound 1 [2] | terminal half-life compared with compound 1 [2] | Compound | activity of inducing S1P1 internalization (human S1P1) | internalization activation effect on S1P3 subtype (human S1P3)
1 | 5.69 | ~11 | 10.6 ± 1.07 | 6200 ± 147 | 365 ± 51.5 | 2 | 82.5 | 2380 ± 329 | 11 ± 1.2 | 7.12 | 8.69 ± 0.8 | 4.65 ± 0.389 | > 1000 |  |  |  |  |  | CC(C)Cc1ccc(-c2nc(-c3ccc(CN4CC(C(=O)O)C4)cc3)no2)cc1 [Compound 1, 1-{4-[5-(4-isobutylphenyl)-1,2,4-oxadiazol-3-yl]-benzyl}-3-azetidine carboxylic acid, reference compound] |  | 
2 |  |  | 12.3 ± 2.09 | 5460 ± 401 | 249 ± 8.74 | 3.33 | 74.0 | 2200 ± 89.5 | 12.9 ± 1.24 | 7.57 | 10.1 ± 1.02 | 5.87 ± 0.802 |  | extended rather than shortened |  |  |  |  | Cc1cc(-c2noc(-c3ccc(CC(C)C)cc3)n2)ccc1CN1CC(C(=O)O)C1 [Compound 5, 1-{2-methyl-4-[5-(4-isobutylphenyl)-1,2,4-oxadiazol-3-yl]-benzyl}-3-azetidine carboxylic acid] |  | 
3 | 3.21 | < 5.5 | 5.3 ± 0.51 | 8110 ± 469 | 681 ± 61.1 | 3.33 | 96.1 | 2770 ± 410 | 5.11 ± 0.39 | 6.1 | 5.04 ± 0.37 | 2.65 ± 0.229 | > 1000 |  | ~50 | accelerated obviously | reduced significantly | reduced significantly | CC(C)Cc1ccc(-c2nc(-c3ccc(CN4CC(C(=O)O)C4)c(Cl)c3)no2)cc1 [Compound 3, 1-{2-chloro-4-[5-(4-isobutylphenyl)-1,2,4-oxadiazol-3-yl]-benzyl}-3-azetidine carboxylic acid] | no significant difference with that of compound 1 | no internalization activation effect on S1P3 subtype
4 | 4.2 | < 5.5 | 5.37 ± 0.15 | 4420 ± 449 | 346 ± 29.6 | 1.15 | 52.9 | 2770 ± 200 | 5.23 ± 0.36 | 6.03 | 5.29 ± 0.6 | 2.75 ± 0.112 | > 1000 |  | ~50 | accelerated obviously | reduced significantly | reduced significantly | CC(C)Cc1ccc(-c2nc(-c3ccc(CN4CC(C(=O)O)C4)c(Br)c3)no2)cc1 [Compound 4, 1-{2-bromo-4-[5-(4-isobutylphenyl)-1,2,4-oxadiazol-3-yl]-benzyl}-3-azetidine carboxylic acid] | no significant difference with that of compound 1 | no internalization activation effect on S1P3 subtype
